Reference: publication PMC12108757, “Discovery and Characterisation of Novel Poly-Histidine-Poly-Glycine Peptides as Matrix Metalloproteinase Inhibitors” (Biomolecules, 2025)

What was measured:
[1] = test system: human MMP-1; test: MMP-1 proteinase inhibition assay (time-dependent β-casein degradation, SDS-PAGE); type: biochemical; conditions: for catalytic suppression of MMP-1: proteinase inhibition assay, summary in discussion; for inhibition of MMP-1 activity in hydrolysing β-casein: 0–24 h, MMP-1 pre-incubated with peptide (1:25 molar ratio), sodium phosphate buffer pH 6.5, 37 °C, 12% SDS-PAGE, Coomassie
Experimental: Proteolytic activity was assessed using β-casein (0.08 mM) as a substrate in a time-course assay (0–24 h). Enzymatic reactions were initiated by pre-incubating human MMP-1 with synthetic pHpG peptides (1:25 molar ratio) in a sodium phosphate buffer (pH 6.5) at 37 °C for 30 min. The recombinant human MMP-1 protein (rhMMP-1; ≥95% purity), obtained from MedChemExpress (Monmouth Junction, NJ, USA), was expressed in HEK293 cells as an unglycosylated form with a determined molecular weight of 49–61 kDa. The latent proenzyme requires activation via incubation with 1 mM aminophenylmercuric acetate at 37 °C for 2 h to generate the catalytically active form. Reactions were quenched with 5 mM EDTA at designated intervals, followed by electrophoretic separation on 12% SDS-PAGE and Coomassie staining. The negative control was β-casein in the absence of enzymatic catalysis, while water served as a system blank to monitor background interference.

[2] = UV-Vis spectroscopy of pHpGs and zinc–pHpG complexes; type: physicochemical; conditions: 0.1 mM, 200–300 nm, room temperature; for UV–visible wavelength, zinc–pHpG complex: Zn^2+ complex; for UV–visible wavelength, peptide before zinc binding: peptide alone
Experimental: Ultraviolet–visible (UV–Vis) spectrum of pHpGs and zinc–pHpG complexes (0.1 mM) were recorded using a Shimadzu UV-2450 spectrophotometer (Shimadzu Corporation, Kyoto, Japan) in the wavelength range of 200–300 nm at room temperature.

[3] = Circular dichroism (CD) analysis; type: physicochemical; conditions: 0.2 mM, 20 °C, CDNN software
Experimental: The synthetic pHpGs (0.2 mM) were analysed by CD spectroscopy to identify the secondary microstructure, respectively. Settings: scanning range of 180–260 nm, speed of 50 nm·min^−1, bandwidth of 1 nm, and a response time of 0.5 s. Secondary structure proportions (α-helices, β-sheets, β-turns, and random coils) were analysed via CDNN v2.1 software (Applied Photophysics Ltd., Leatherhead, UK).

[4] = test system: metalloproteinase; conditions: ref [10]; cited from earlier work
Experimental: Time-dependent β-casein degradation mediated by MMP-1 was analysed. In the absence of pHpG peptides, β-casein was progressively degraded and fully hydrolysed within 24 h (Figure 4A).

[5] = test system: SVMP; conditions: ref [10]; cited from earlier work
Description: (§1) In the preceding investigation, we reported the presence of snake venom metalloproteinase in A. squamigera’s venom, which belongs to the Pep_M12B_propeptide family. […] This hypothesis is strongly supported by findings ...

[6] = test system: venom-induced haemorrhage; conditions: ref [10]; cited from earlier work
Description: as §1

[7] = test system: HUVECs; test: Scratch wound healing assay; type: cell-based, human; conditions: hVEGF165 25 ng/mL stimulated, serum-free, 12 h, 37 °C; across all groups 3.125–25 μM
Experimental: Human umbilical vein endothelial cells (HUVECs) were procured from the Shanghai Institute of Biochemistry and Cell Biology (Chinese Academy of Sciences, China). For the scratch wound healing assay, HUVECs were seeded in 24-well plates at a density of 1.2 × 10⁵ cells/well and cultured to form confluent monolayers. A linear wound was created by scraping with a sterile pipette tip. Serum-free Dulbecco’s modified Eagle medium containing 25 ng/mL of human vascular endothelial growth factor 165 (hVEGF165) was supplied, followed by the addition of either the pHpG-H7 peptide (3.125 μM, 6.25 μM, 12.5 μM, 25 μM) or water as a control. Cells were incubated for 12 h (37 °C, 5% CO2), and images were captured at 0 h (initial wound area) and 12 h. Wound healing was quantified using ImageJ 1.53t software, with a migration rate calculated as: Mobility (%) = (initial wound area–12 h residual area)/initial wound area × 100%.

[8] = test system: HUVECs; test: Trans-well migration assay; type: cell-based, human; conditions: 10% FBS, hVEGF165 25 ng/mL, 24 h, 37 °C; 3.125–25 μM
Experimental: HUVECs (2 × 10^5 cells) were seeded in the upper chamber of a modified Boyden chamber system (BD Sciences, Milpitas, CA, USA). The lower chamber contained medium with 10% FBS, hVEGF165 (25 ng/mL), pHpG-H7 peptide (3.125 μM, 6.25 μM, 12.5 μM, 25 μM), or water. After 24 h incubation (37 °C, 5% CO2), migrated cells on the lower membrane surface were fixed, stained with Crystal Violet, and imaged. Cell migration was quantified using ImageJ software.

[9] = test system: HUVECs; test: Tube formation assay (Matrigel); type: cell-based, human; conditions: hVEGF165-stimulated, 1% FBS, 8 h, 37 °C, 3.125–25 μM
Experimental: Matrigel™ Basement Membrane Matrix (BD Bioscience, Franklin Lakes, NJ, USA) was added to a 96-well plate to a total volume of 60 μL per well and polymerised at 37 °C with 5% CO2 for 30 min to form a gel layer. HUVECs (2 × 10^4 cells/well) in the medium with 1% FBS were seeded. Different concentrations of pHpG-H7 peptide (3.125 μM, 6.25 μM, 12.5 μM, 25 μM) were added to each well and incubated for 8 h (37 °C, 5% CO2). Results were detected by phase-contrast microscope (Olympus, Tokyo, Japan) and photographed. At least three representative fields from each well were selected to count the number of branching points.

| Sequence | catalytic suppression of MMP-1 [1] | inhibition of MMP-1 activity in hydrolysing β-casein ([1]; β-casein 0.08 mM, 30 min) | UV–visible wavelength, zinc–pHpG complex [2] [nm] | UV–visible wavelength, peptide before zinc binding [2] [nm] | Unorderd (random coil) [3] [%] | α-Helix [3] [%] | β-Strand [3] [%] | β-Turn [3] [%] | metalloproteinase-mediated casein hydrolysis [4] | SVMP activity [5] | venom-induced haemorrhage [6] | relative inhibitory effect on MMP-1 among the pHpG peptides ([1]; comparison of pHpG-H5, pHpG-H7, pHpG-H9, β-casein, SDS-PAGE) | earliest time of suppression of MMP-1 activity ([1]; β-casein 0.08 mM, pre-incubation 1:25 molar ratio, pH 6.5, 37 °C, 30 min, SDS-PAGE, 'as early as') [h] | wound closure capability of HUVECs [7] | HUVECs migration [8] | anti-angiogenesis effect (tube formation) [9] |
| --- | --- | --- | --- | --- | --- | --- | --- | --- | --- | --- | --- | --- | --- | --- | --- | --- |
| EDDHHHHHGVGGGGGGGGGG [pHpG-H5] | potent catalytic suppression | significantly inhibited | 216 | 214 | 29.2 | 12.1 | 40.6 | 21.6 |  |  |  |  |  |  |  |  |
| EDDHHHHHHHHHGVGGGGGGGGGG [pHpG-H9, Atheris pHpG-1 is equivalent to pHpG-H9, reference compound] | potent catalytic suppression | significantly inhibited | 218 | 210 | 47.5 | 6.3 | 11.7 | 30.7 | inhibits | inhibition of SVMP activity | alleviation of venom-induced haemorrhage |  |  |  |  |  |
| EDDHHHHHHHGVGGGGGGGGGG [pHpG-H7] | potent catalytic suppression | significantly inhibited | 215 | 212 | 46.4 | 6.2 | 13.6 | 29.4 |  |  |  | most pronounced inhibitory effect | ≤ 0.5 | significantly impaired | inhibited by pHpG-H7 in a dose-dependent manner | anti-angiogenesis effects in a dose-dependent manner |
